These results are taken from US20140065103A1 (VERTEX PHARMACEUTICALS INCORPORATED, priority 2010, published 2014).

Data set [1] has as its system HCV sub-genomic replicon of genotype 1a in replicon cell line W11.8. Kind of data set: microbe, parasite or virus in culture. Type of data set: cell-based, Hepatitis C virus. To be noted: Hepatitis C virus, W11.8, 96 h, read-out: HCV-Replicon-ELISA-1a IC50. For orientation: Replicon systems follow genome replication, usually without infectious particles.
A short description of data set [2]: [3H]Thymidine incorporation assay (cytotoxicity, CC50). To be noted: human. In general terms: Dividing cells build labelled thymidine or BrdU into new DNA.

SMILES strings stand for the structures.

As to `CC(C)(C)C#Cc1cc(N(C(=O)c2ccc(Cl)c(F)c2)[C@H]2CC[C@H](O)CC2)c(C(=O)O)s1` [Compound 94, 3-[(4-Chloro-3-fluoro-benzoyl)-(trans-4-hydroxy-cyclohexyl)-amino]-5-(3,3-dimethyl-but-1-ynyl)-thiophene-2-carboxylic acid], the IC50 in data set [1] lay within 0.1 to 1 µM. Consider `Cc1ccc(C(=O)N(c2cc(C#CC(C)(C)C)sc2C(=O)O)[C@H]2CC[C@H](O)CC2)c(F)c1` [Compound 85, 5-(3,3-Dimethyl-but-1-ynyl)-3-[(2-fluoro-4-methyl-benzoyl)-(trans-4-hydroxy-cyclohexyl)-amino]thiophene-2-carboxylic acid], for which, in data set [1], the IC50 is < 0.1 µM. Also, the half-maximal cytotoxic concentration (CC50) at 72 h in data set [2] is 10 to 100 µM.

On to `CC(C)N(c1cc(C#CC2CC2)sc1C(=O)O)C(=O)[C@H]1CC[C@H](C)CC1` [Compound 20, 5-Cyclopropylethynyl-3-[isopropyl-(trans-4-methyl-cyclohexanecarbonyl)-amino]-thiophene-2-carboxylic acid], for which, in data set [1], the IC50 lay in the range of 0.1 to 1 µM. The half-maximal cytotoxic concentration (CC50) at 72 h in data set [2] lay in the range of 10 to 100 µM. On the same counts, the results for `CC(CN1CCOCC1)N(c1cc(C#CC(C)(C)C)sc1C(=O)O)C(=O)[C@H]1CC[C@H](C)CC1` (relative stereo) [Compound 72, 5-(3,3-Dimethylbut-1-yn-1-yl)-3-(trans-4-methyl-N-(1-morpholinopropan-2-yl)cyclohexanecarboxamido)thiophene-2-carboxylic acid] are < 0.1 µM and 10 to 100 µM. The matching figures for `CC(C)N(c1cc(C#CC2CCCCC2)sc1C(=O)O)C(=O)[C@H]1CC[C@H](C)CC1` [Compound 18, 5-Cyclohexylethynyl-3-[isopropyl-(trans-4-methyl-cyclohexanecarbonyl)-amino]-thiophene-2-carboxylic acid]: 1 to 10 µM and 10 to 100 µM. As to `Cc1nnc(CN(c2cc(C#CC(C)(C)C)sc2C(=O)O)C(=O)[C@H]2CC[C@H](C)CC2)o1` [Compound 24, 5-(3,3-Dimethyl-but-1-ynyl)-3-[(trans-4-methyl-cyclohexanecarbonyl)-(5-methyl-[1,3,4]oxadiazol-2-ylmethyl)-amino]-thiophene-2-carboxylic acid], the CC50 at 72 h in data set [2] is < 10 µM. With `CC(C)N(c1cc(C#CC(F)(F)F)sc1C(=O)O)C(=O)[C@H]1CC[C@H](C)CC1` [Compound 23, 3-[Isopropyl-(trans-4-methyl-cyclohexanecarbonyl)-amino]-5-trifluoroprop-1-ynyl-thiophene-2-carboxylic acid], the concentration for half-maximal inhibition (IC50) in data set [1] lay within 0.1 to 1 µM. The compound further came in with a CC50 at 72 h in data set [2] of 10 to 100 µM. The matching figures for `CC(C)(C)C#Cc1cc(N(C(=O)c2ccc(C(F)(F)F)cc2)[C@H]2CC[C@H](O)CC2)c(C(=O)O)s1` [Compound 82, 5-(3,3-Dimethyl-but-1-ynyl)-3-[(trans-4-hydroxy-cyclohexyl)-(4-trifluoromethyl-benzoyl)-amino]thiophene-2-carboxylic acid]: 0.1 to 1 µM and 10 to 100 µM.

Take `Cc1ccc(C(=O)N(c2cc(C#CC(C)(C)C)sc2C(=O)O)[C@H]2CC[C@H](O)CC2)c(Cl)c1` [Compound 84, 3-[(2-Chloro-4-methyl-benzoyl)-(trans-4-hydroxy-cyclohexyl)-amino]-5-(3,3-dimethyl-but-1-ynyl)-thiophene-2-carboxylic acid]: in data set [1], the IC50 was < 0.1 µM.

On to `CC(C)(C)C#Cc1cc(N(C(=O)[C@H]2CC[C@H](C)CC2)[C@H]2C[C@@H](CO)C2)c(C(=O)O)s1` [Compound 76, 5-(3,3-dimethylbut-1-yn-1-yl)-3-(trans-4-methyl-N-(cis-3-(hydroxymethyl)cyclobutyl)cyclohexanecarboxamido)thiophene-2-carboxylic acid], for which the IC50 in data set [1] is < 0.1 µM. The CC50 at 72 h in data set [2] is > 100 µM.

Take `CC(C)(C)C#Cc1cc(N(CC(=O)O)C(=O)[C@H]2CC[C@H](C)CC2)c(C(=O)O)s1` [Compound 2, 3-[Carboxymethyl-(trans-4-methyl-cyclohexanecarbonyl)-amino]-5-(3,3-dimethyl-but-1-ynyl)-thiophene-2-carboxylic acid]: the half-maximal inhibitory concentration (IC50) in data set [1] was in the range of 0.1 to 1 µM. In data set [2], the CC50 at 72 h is > 100 µM. The matching figures for `CC(C)(C)C#Cc1cc(N(C(=O)[C@H]2CC[C@H](C)CC2)[C@H]2CCNC2)c(C(=O)O)s1` [Compound 57, 5-(3,3-Dimethylbut-1-yn-1-yl)-3-((trans)-4-methyl-N-((S)-pyrrolidin-3-yl)cyclohexanecarboxamido)thiophene-2-carboxylic acid]: < 0.1 µM and > 100 µM. Take `CC(C)(C)C#Cc1cc(N(C(=O)[C@H]2CC[C@H](C)CC2)C2CC=C(F)CC2)c(C(=O)O)s1` (relative stereo) [Compound 15, 5-(3,3-Dimethyl-but-1-ynyl)-3-[(4-fluoro-cyclohex-3-enyl)-(trans-4-methyl-cyclohexanecarbonyl)-amino]-thiophene-2-carboxylic acid]: in data set [1], the concentration for half-maximal inhibition (IC50) was < 0.1 µM. The same compound returned a 50% cytotoxic concentration (CC50) at 72 h in data set [2] of 10 to 100 µM. For the compound `CC(C)(C)C#Cc1cc(N(C(=O)[C@H]2CC[C@H](C)CC2)C2CCC(F)(F)CC2)c(C(=O)O)s1` [Compound 14, 3-[(4,4-Difluoro-cyclohexyl)-(trans-4-methyl-cyclohexanecarbonyl)-amino]-5-(3,3-dimethyl-but-1-ynyl)-thiophene-2-carboxylic acid], in data set [1], the IC50 is < 0.1 µM. Further, the cytotoxic concentration (CC50) at 72 h in data set [2] lay within 10 to 100 µM. On the same counts, the results for `CC(C)(C)C#Cc1cc(N(C(=O)c2ccc(Cl)cc2Cl)[C@H]2CC[C@H](O)CC2)c(C(=O)O)s1` [Compound 90, 3-[(2,4-Dichloro-benzoyl)-(trans-4-hydroxy-cyclohexyl)-amino]-5-(3,3-dimethyl-but-1-ynyl)-thiophene-2-carboxylic acid] are 0.1 to 1 µM and 10 to 100 µM. With `Cn1ccnc1CN(c1cc(C#CC(C)(C)C)sc1C(=O)O)C(=O)[C@H]1CC[C@H](C)CC1` [Compound 64, 5-(3,3-Dimethylbut-1-ynyl)-3-((trans)-4-methyl-N-((1-methyl-1H-imidazol-2-yl)methyl)cyclohexanecarboxamido)thiophene-2-carboxylic acid], the 50% inhibitory concentration (IC50) in data set [1] is < 0.1 µM. The same compound showed a CC50 at 72 h in data set [2] of 10 to 100 µM. Regarding `Cc1ccccc1C(=O)N(c1cc(C#CC(C)(C)C)sc1C(=O)O)[C@H]1CC[C@H](O)CC1` [Compound 88, 5-(3,3-Dimethyl-but-1-ynyl)-3-[(trans-4-hydroxy-cyclohexyl)-(2-methyl-benzoyl)-amino]-thiophene-2-carboxylic acid], in data set [1], the IC50 was 0.1 to 1 µM. Same read-out and setting: for `CC(C)(C)C#Cc1cc(N(C(=O)c2ccccc2Cl)[C@H]2CC[C@H](O)CC2)c(C(=O)O)s1` [Compound 87, 3-[(2-Chloro-benzoyl)-(trans-4-hydroxy-cyclohexyl)-amino]-5-(3,3-dimethyl-but-1-ynyl)-thiophene-2-carboxylic acid] the value was 1 to 10 µM. As to `CC(C)(C)C#Cc1cc(N(Cc2cccnc2)C(=O)[C@H]2CC[C@H](C)CC2)c(C(=O)O)s1` [Compound 1], in data set [1], the 50% inhibitory concentration (IC50) is < 0.1 µM. In data set [2], this compound had a half-maximal cytotoxic concentration (CC50) at 72 h of 10 to 100 µM. On the same counts, the results for `CC(C)(C)C#Cc1cc(N(C(=O)[C@H]2CC[C@H](C)CC2)[C@@H]2CCNC2)c(C(=O)O)s1` [Compound 58, 5-(3,3-Dimethylbut-1-yn-1-yl)-3-((trans)-4-methyl-N—((R)-pyrrolidin-3-yl)cyclohexanecarboxamido)thiophene-2-carboxylic acid] are < 0.1 µM and > 100 µM. As to `CN(C)C(=O)[C@H]1C[C@@H](N(c2cc(C#CC(C)(C)C)sc2C(=O)O)C(=O)[C@H]2CC[C@H](C)CC2)C1` [Compound 11, 5-(3,3-dimethylbut-1-yn-1-yl)-3-(trans-4-methyl-N-(cis-3-(dimethylcarbamoyl)cyclobutyl)cyclohexanecarboxamido)thiophene-2-carboxylic acid], the IC50 in data set [1] is < 0.1 µM. The CC50 at 72 h in data set [2] is 10 to 100 µM. Take `C=CCO[C@H]1CC[C@H](N(c2cc(C#CC(C)(C)C)sc2C(=O)O)C(=O)[C@H]2CC[C@H](C)CC2)CC1` [Compound 12, 3-[(trans-4-Allyloxy-cyclohexyl)-(trans-4-methyl-cyclohexanecarbonyl)-amino]-5-(3,3-dimethyl-but-1-ynyl)-thiophene-2-carboxylic acid]: the IC50 in data set [1] is < 0.1 µM. Moreover, in data set [2], the cytotoxic concentration (CC50) at 72 h was 10 to 100 µM. The matching figures for `CC(C)N(c1cc(C#Cc2ccccc2)sc1C(=O)O)C(=O)[C@H]1CC[C@H](C)CC1` [Compound 21, 3-[Isopropyl-(trans-4-methyl-cyclohexanecarbonyl)-amino]-5-phenylethynyl-thiophene-2-carboxylic acid]: 1 to 10 µM and 10 to 100 µM. On the same counts, the results for `Cn1cncc1CN(c1cc(C#CC(C)(C)C)sc1C(=O)O)C(=O)[C@H]1CC[C@H](C)CC1` [Compound 66, 5-(3,3-Dimethylbut-1-ynyl)-3-((trans)-4-methyl-N-((1-methyl-1H-imidazol-5-yl)methyl)cyclohexanecarboxamido)thiophene-2-carboxylic acid] are < 0.1 µM and > 100 µM. On to `CC(C)(C)C#Cc1cc(N(C(=O)c2ccc(Cl)cc2)[C@H]2CC[C@H](O)CC2)c(C(=O)O)s1` [Compound 81, 3-[(4-Chloro-benzoyl)-(trans-4-hydroxy-cyclohexyl)-amino]-5-(3,3-dimethyl-but-1-ynyl)-thiophene-2-carboxylic acid], for which the IC50 in data set [1] lay in the range of 0.1 to 1 µM. The same measure, in the same setting: under `CC(C)(C)C#Cc1cc(N(C(=O)c2ccc(F)cc2)[C@H]2CC[C@H](O)CC2)c(C(=O)O)s1` [Compound 92, 5-(3,3-Dimethyl-but-1-ynyl)-3-[(4-fluoro-benzoyl)-(trans-4-hydroxy-cyclohexyl)-amino]-thiophene-2-carboxylic acid] stands 1 to 10 µM; under `Cc1ccc(C(=O)N(c2cc(C#CC(C)(C)C)sc2C(=O)O)[C@H]2CC[C@H](O)CC2)c(F)c1F` [Compound 89, 3-[(2,3-Difluoro-4-methyl-benzoyl)-(trans-4-hydroxy-cyclohexyl)-amino]-5-(3,3-dimethyl-but-1-ynyl)-thiophene-2-carboxylic acid], < 0.1 µM.

What is called IC50 is the point on the concentration scale where inhibition reaches its midpoint. One may read the CC50 as the concentration that lowers cell viability or growth by half. The low end stands for harm at low concentration, the high end for better tolerance by the cells.
